Results on seven compounds are retold here after US12522594B2, “2-heteroaryl-3-oxo-2,3-dihydropyridazine-4-carboxamides for the treatment of cancer” (Deutsches Krebsforschungszentrum, priority 2017, dated 2026).

The test system of one assay is human monocytes. In words: In vitro assay 4: rescue of TNFα production from human primary monocytes (LPS + KA). The class given is cell-based. The settings on record: one value per donor; for Individual Donors Conc of highest rescue: concentration (of 1, 0.3, 0.1 uM tested) at which highest TNFα rescue was observed; for Individual Donors % rescue TNFα normalised to ref cmpd: human monocytes, 10 ng/mL LPS + 200 uM KA, 18 hours, highest percent rescue relative to highest rescue with GNF-351. As to the method: In Vitro Assay 4: Rescue of TNFα Production from Human Primary Monocytes
The ability of the substances to enhance immune cell activity was determined. The substances were tested for their capacity to reverse KA-induced inhibition of TNFα production by LPS-stimulated human monocytes. Human monocytes were purified by negative selection from donor PBMCs using Miltenyi beads and seeded at 2×10^5 cells/well in complete growth medium (RPMI 1640, 10% FCS). Monocytes were incubated with 10 ng/mL LPS (O127:B8, #L4516, Sigma) and 200 uM KA (#3375, Sigma) and substances were added at concentrations of 1 uM, 0.3 uM and 0.1 uM and cultured for 18 hours. LPS alone served as the positive control. TNFα production in the supernatant was measured by Meso Scale Discovery immunoassay and the ability of the substances to rescue TNFα production was calculated as a percentage of LPS stimulation and KA-induced inhibition and normalized to the donor-specific response with the reference AHR antagonist compound GNF-351 (Smith et al., J Pharmacol Exp Ther, 2011, 338(1):318-27).

The subject of assay [1] is B16F10-OVA cells. In words: In vivo assay: efficacy of an example compound and a PD-1/-L1 axis antagonist, B16F10-OVA tumor in C57/BL6N mice. Also on record: species or system mouse. As to conditions: tumor volume treatment/control; single agent plus vehicle or isotype; AhR antagonist 30 mg/kg QD p.o.; aPDL1 (TPP-3911) 10 mg/kg q3d i.p.
From the text: In Vivo Assay: Efficacy of Compositions Comprising an Example Compound and a PD-1/-L1 Axis Antagonist
Animals are ordered from Charles River Sulzfeld, Germany and assigned to the study at the age of 7 weeks. Animal husbandry, feeding and health conditions are according to animal welfare guidelines. B16F10-OVA cells are B16F10 mouse melanoma cells that were virally transduced to express ovalbumin. […] The antibiotic blasticidin is removed 1 passage before inoculation. Female C57/BL6N mice were inoculated with 100000 B16F100VA tumor cells in 50% medium/50% matrigel subcutaneously in the flank. After 5 days the animals were randomized and therapeutic treatment started.
The anti-PDL1 antibody is a chimera of the variable domain of atezolizumab with murine IgG1 CH1, 2 and 3 domains.
In assay [2] the test system is B16F10-OVA cells. Nature of the assay: In vivo assay: efficacy of an example compound and a CTLA4 axis antagonist, B16F10-OVA tumor in C57/BL6J mice. As to conditions: tumor volume treatment/control; single agent plus vehicle or isotype; AhR antagonist 30 mg/kg QD p.o.; aCTLA4 1 mg/kg q3d i.p. Also on record: species or system mouse. On the procedure: In Vivo Assay: Efficacy of Compositions Comprising an Example Compound and a CTLA4 Axis Antagonist
Animals are ordered from Charles River Sulzfeld, Germany and assigned to the study at the age of 8 weeks. Animal husbandry, feeding and health conditions are according to animal welfare guidelines. B16F10-OVA cells are B16F10 mouse melanoma cells that were virally transduced to express ovalbumin. B16F10-OVA cells were cultivated with RPMI 1640 with 10% FCS+2.5 μg/ml blasticidin and splitted at least 3 times before inoculation. The antibiotic blasticidin is removed 1 passage before inoculation. Female C57/BL6J mice were inoculated with 10000 B16F10-OVA tumor cells in 50% medium/50% matrigel subcutaneously in the flank. After 7 days the animals were randomized and therapeutic treatment started on day 8. The AhR antagonists were dissolved in Ethanol/Solutol/Water (10/40/50) and given at 30 mg/kg, QD, p.o. The anti-CTLA4 antibody was dosed at 1 mg/kg, q3d, i.p. The anti-CTLA4 antibody is mouse-specific with syrian hamster IgG1 isotype (Clone: 9H10 (anti mouse CTLA4), Fa. BioXCell BE0131). […]
Tumor size was measured using calipers determining length (a) and width (b). Tumor volume was calculated according to: […]
Based on tumor volume efficacy was calculated dividing tumor volume of the respective treatment group by tumor volume of the control group (T/C).

Assay [3] has as its target T1, AHR (Homo sapiens, UniProt P35869).
T1 sequence (P35869 11-848): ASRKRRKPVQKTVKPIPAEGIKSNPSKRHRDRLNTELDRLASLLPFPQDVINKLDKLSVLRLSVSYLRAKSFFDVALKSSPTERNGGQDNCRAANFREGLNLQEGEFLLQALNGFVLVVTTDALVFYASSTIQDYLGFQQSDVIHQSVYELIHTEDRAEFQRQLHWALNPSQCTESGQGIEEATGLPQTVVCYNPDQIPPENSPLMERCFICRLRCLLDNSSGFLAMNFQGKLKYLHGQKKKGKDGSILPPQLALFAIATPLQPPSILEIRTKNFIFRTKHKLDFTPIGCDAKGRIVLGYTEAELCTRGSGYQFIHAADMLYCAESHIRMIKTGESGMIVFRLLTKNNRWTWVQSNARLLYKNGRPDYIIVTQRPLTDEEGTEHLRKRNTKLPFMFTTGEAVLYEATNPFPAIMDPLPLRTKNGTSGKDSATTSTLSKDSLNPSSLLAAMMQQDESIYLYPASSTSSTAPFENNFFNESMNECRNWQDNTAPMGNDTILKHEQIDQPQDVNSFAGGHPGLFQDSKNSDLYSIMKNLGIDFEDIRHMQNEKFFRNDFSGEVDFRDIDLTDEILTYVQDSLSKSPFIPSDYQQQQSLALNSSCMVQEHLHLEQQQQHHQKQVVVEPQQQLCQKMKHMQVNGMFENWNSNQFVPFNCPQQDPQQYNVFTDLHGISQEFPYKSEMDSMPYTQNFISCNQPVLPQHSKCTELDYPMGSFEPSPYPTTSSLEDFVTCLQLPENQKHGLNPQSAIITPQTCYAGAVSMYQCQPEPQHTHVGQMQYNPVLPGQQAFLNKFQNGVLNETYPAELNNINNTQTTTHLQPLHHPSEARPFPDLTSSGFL
Nature of the assay: In vitro assay 3: AHR-regulated CYP1A1 expression in human cell line (U937, qPCR, KA stimulation). The class given is cell-based. The settings on record: U937 cells, 200 uM KA, 6 hours, CYP1A1 expression by qPCR; read-out: Assay 3: Hum CYP1A1 Antagonism IC50. The essentials: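 U937 human monocytic cells were stimulated with 200 uM KA for 6 h, with or without compound at eight concentrations from 1 nM to 3 uM, in duplicate. CYP1A1 mRNA was quantified by Taqman qPCR as fold expression normalised to HPRT. Unstimulated cells served as negative control.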
A general note: In qPCR the cycle at which signal appears reflects the starting amount.

For assay [4], the target named is T1, AHR. Nature of the assay: In vitro assay 1: antagonism in human cell line (transactivation assay, U87 cells prestimulated with kynurenic acid, DRE firefly luciferase reporter). The settings on record: 150 uM kynurenic acid, 20 hours, read-out: Assay 1: AHR-luc Hum Antagonism IC50. Also on record: host or cells: U87 glioblastoma cells, stably transfected with DRE firefly luciferase and renilla reporter constructs. The class given is cell-based. An outline of the steps:
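Antagonism measured after kynurenic acid prestimulation in U87 cells that express AHR endogenously and stably harbor a firefly luciferase gene under DRE control plus a constitutive renilla construct. Positive and negative controls served for normalization.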
On the technique in general: In a reporter assay the amount or activity of a reporter protein is the signal.

Assay [5] has as its target T1, AHR. Nature of the assay: In vitro assay 2: agonism in human cell line (transactivation assay, U87 cells, DRE firefly luciferase reporter). The class given is cell-based. Also on record: host or cells: U87 glioblastoma cells, stably transfected with DRE firefly luciferase and renilla reporter constructs. As to conditions: no kynurenic acid, 20 hours, read-out: Assay 2: AHR-luc Hum Agonism IC50. The essentials: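 Agonist readout: DRE firefly luciferase, with constitutive renilla reporter, in stably transfected U87 cells expressing AHR endogenously. Normalization used positive control (300 uM kynurenic acid) and negative control.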

The term IC50 denotes the concentration at which inhibition is half-maximal.

Several values for one entry are separate records, joined by “and”; a condition that tells them apart may be missing. Equal entries are not always repeated. Bounds are passed on as bounds.

Consider `C[C@@H](CO)NC(=O)c1cc(-c2ccc(Cl)cc2)nn(-c2cnn(C)c2)c1=O` [Example 17, 6-(4-Chlorophenyl)-N-[(2S)-1-hydroxypropan-2-yl]-2-(1-methyl-1H-pyrazol-4-yl)-3-oxo-2,3-dihydropyridazine-4-carboxamide], for which, in the assay on human monocytes, the “Individual Donors Conc of highest rescue” value is 1 µM; the “Individual Donors % rescue TNFα normalised to ref cmpd” value was 438% and 296%. The T/C in the assay with B16F10-OVA cells [1] was 0.92. Also, the T/C in the assay on B16F10-OVA cells [2] stood at 0.90.

Take `O=C(NC[C@H](O)C(F)(F)F)c1cc(-c2ccc(OC(F)(F)F)cc2)nn(-c2cccnc2)c1=O` [Example 131, 3-Oxo-2-(pyridin-3-yl)-N-[(2S)-3,3,3-trifluoro-2-hydroxypropyl]-6-[4-(trifluoromethoxy)phenyl]-2,3-dihydropyridazine-4-carboxamide]: the values for the IC50 at AHR [3], at AHR [4] and at AHR [5] were 7.29 nM, 6.23 nM and over 20000 nM, respectively. Besides, the T/C in the assay on B16F10-OVA cells [2] was determined as 1.05.

`O=C(N[C@H]1CCC[C@H]1O)c1cc(-c2ccc(OC(F)(F)F)cc2)nn(-c2cccnc2)c1=O` [Example 147, N-[(1S,2R)-2-Hydroxycyclopentyl]-3-oxo-2-(pyridin-3-yl)-6-[4-(trifluoromethoxy)phenyl]-2,3-dihydropyridazine-4-carboxamide]: the results for the IC50 on AHR [3], at AHR [4] and at AHR [5] were 11.1 nM, 12.2 nM and over 20000 nM, respectively. For the same compound, the “Individual Donors Conc of highest rescue” value in the assay with human monocytes was 0.1 µM and 0.3 µM. Besides, the “Individual Donors % rescue TNFα normalised to ref cmpd” value in the assay on human monocytes was 50% and 89%.

In the case of `CC(C)[C@@H](CO)NC(=O)c1cc(-c2ccc(Cl)cc2)nn(-c2cnn(C)c2)c1=O` [Example 16, 6-(4-Chlorophenyl)-N-[(2S)-1-hydroxy-3-methylbutan-2-yl]-2-(1-methyl-1H-pyrazol-4-yl)-3-oxo-2,3-dihydropyridazine-4-carboxamide], the IC50 at AHR [3] is 2.49 nM; at AHR [4], 3.69 nM; on AHR [5], over 20000 nM. For the same compound, the “Individual Donors Conc of highest rescue” value in the assay on human monocytes amounted to 1 µM. For the same compound, the “Individual Donors % rescue TNFα normalised to ref cmpd” value with human monocytes is 249% and 165%.

On to `Cn1cc(-n2nc(-c3ccc(OC(F)(F)F)cc3)cc(C(=O)N[C@H](CO)C(F)(F)F)c2=O)cn1` [Example 47, 2-(1-Methyl-1H-pyrazol-4-yl)-3-oxo-N-[(2R)-1,1,1-trifluoro-3-hydroxypropan-2-yl]-6-[4-(trifluoromethoxy)phenyl]-2,3-dihydropyridazine-4-carboxamide], for which the IC50 on AHR [3] was 1.66 nM; at AHR [4], 1.52 nM; on AHR [5], over 20000 nM. The “Individual Donors Conc of highest rescue” value in the assay with human monocytes was 1 µM. Moreover, the “Individual Donors % rescue TNFα normalised to ref cmpd” value with human monocytes is 68% and 64%.

Regarding `Cc1ccc(-c2cc(C(=O)NCC(O)C(F)(F)F)c(=O)n(-c3cnn(C)c3)n2)cc1` (single isomer, unassigned; enantiomer 2) [Example 12, (+)-6-(4-Methylphenyl)-2-(1-methyl-1H-pyrazol-4-yl)-3-oxo-N-(3,3,3-trifluoro-2-hydroxypropyl)-2,3-dihydropyridazine-4-carboxamide, Enantiomer 2], the IC50 on AHR [3] is 18.5 nM; on AHR [4], 23.2 nM; at AHR [5], over 20000 nM. Further, the “Individual Donors Conc of highest rescue” value in the assay with human monocytes is 0.1 μM (2×) and 1 μM and 0.3 μM. Besides, the “Individual Donors % rescue TNFα normalised to ref cmpd” value with human monocytes is 74% and 122% and 213% and 109%.

On to `Cn1cc(-n2nc(-c3ccc(Cl)cc3)cc(C(=O)NCC(O)C(F)F)c2=O)cn1` (single isomer, unassigned; (-)) [Example 22, (−)-6-(4-Chlorophenyl)-N-(3,3-difluoro-2-hydroxypropyl)-2-(1-methyl-1H-pyrazol-4-yl)-3-oxo-2,3-dihydropyridazine-4-carboxamide], for which the IC50 at AHR [3] was 11.2 nM; on AHR [4], 20 nM; at AHR [5] it was over 20000 nM. Further, the “Individual Donors Conc of highest rescue” value in the assay on human monocytes worked out at 1 µM. For the same compound, in the assay with human monocytes, the “Individual Donors % rescue TNFα normalised to ref cmpd” value was 66% and 71%.
